# Where “and” joins values, the source holds several entries; their conditions need not be identical. Equal values may be shown once.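 A five-concentration, 48-hour dose response in 96-well plates underlies each endpoint, interpolated linearly between surrounding concentrations. The concentration for 50% growth inhibition is given as GI50. TGI marks complete inhibition of growth.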
# Experiments:
# Assay in all cases: NCI anticancer screen, dose series, 48 h
# [1] = test system: A498 renal
# [2] = test system: NCI-H460 lung
# [3] = test system: LOX IMVI melanoma
# [4] = test system: MDA-MB-231 breast
# [5] = test system: DU-145 prostate
# [6] = test system: 786-0 renal
# [7] = test system: HOP-62 NSCLC
# [8] = test system: K-562 leukemia
# [9] = test system: OVCAR-8 ovarian
# [10] = test system: HL-60(TB) leukemia
# [11] = test system: RPMI-8226 leukemia
# [12] = test system: COLO 205 colon
# [13] = test system: UACC-257 melanoma
# [14] = test system: HCC-2998 colon
# [15] = test system: MALME-3M melanoma
# [16] = test system: SF-268 CNS
# [17] = test system: CCRF-CEM leukemia
# [18] = test system: OVCAR-5 ovarian
# [19] = test system: RXF 393 renal
# [20] = test system: CAKI-1 renal
# [21] = test system: SK-MEL-2 melanoma
# [22] = test system: IGROV1 ovarian
# [23] = test system: SF-539 CNS
# [24] = test system: M14 melanoma
# [25] = test system: OVCAR-3 ovarian
# [26] = test system: MDA-N
# [27] = test system: SN12C renal
# [28] = test system: UO-31 renal
# [29] = test system: UACC-62 melanoma
# [30] = test system: NCI-H226 lung
# [31] = test system: TK-10 renal
# [32] = test system: MCF7 breast
# [33] = test system: SK-MEL-5 melanoma
# [34] = test system: ACHN renal
# [35] = test system: PC-3 prostate
# [36] = test system: SF-295 CNS
# [37] = test system: HT29 colon
# [38] = test system: NCI-H522 lung
# [39] = test system: U251 CNS
# [40] = test system: MOLT-4 leukemia
# [41] = test system: HCT-116 colon
# [42] = test system: HS 578T breast
# [43] = test system: NCI-H23 lung
# [44] = test system: T-47D breast
# [45] = test system: SNB-75 CNS
# [46] = test system: SK-OV-3 ovarian
# [47] = test system: KM12 colon
# [48] = test system: OVCAR-4 ovarian
# [49] = test system: MDA-MB-435
# [50] = test system: SK-MEL-28 melanoma
# [51] = test system: HOP-92 NSCLC
# [52] = test system: EKVX NSCLC
# [53] = test system: SR leukemia
# [54] = test system: SW-620 colon
# [55] = test system: NCI/ADR-RES ovarian
# [56] = test system: A549 NSCLC
# [57] = test system: SNB-19 CNS
# [58] = test system: HCT-15 colon
# [59] = test system: BT-549 breast
compound,measurement,setting,value
N#CC(C#N)=Cn1c(=S)[nH]c2ccc([N+](=O)[O-])cc21,TGI,[1],> 100 µM
same,TGI,[2],> 100 µM
same,TGI,[3],> 100 µM
same,TGI,[4],> 100 µM
same,TGI,[5],> 100 µM
same,TGI,[6],> 100 µM
same,TGI,[7],> 100 µM
same,TGI,[8],> 100 µM
same,TGI,[9],> 100 µM
same,TGI,[10],> 100 µM
same,TGI,[11],> 100 µM
same,TGI,[12],> 100 µM
same,TGI,[13],> 100 µM
same,TGI,[14],> 100 µM
same,TGI,[15],> 100 µM
same,TGI,[16],> 100 µM
same,TGI,[17],> 100 µM
same,TGI,[18],> 100 µM
same,TGI,[19],> 100 µM
same,TGI,[20],> 100 µM
same,TGI,[21],> 100 µM
same,TGI,[22],> 100 µM
same,TGI,[23],> 100 µM
same,TGI,[24],> 100 µM
same,TGI,[25],> 100 µM
same,TGI,[26],> 100 µM
same,TGI,[27],> 100 µM
same,TGI,[28],> 100 µM
same,TGI,[29],> 100 µM
same,TGI,[30],> 100 µM
same,TGI,[31],> 100 µM
same,TGI,[32],> 100 µM
same,TGI,[33],> 100 µM
same,TGI,[34],> 100 µM
same,TGI,[35],> 100 µM
same,TGI,[36],> 100 µM
same,TGI,[37],> 100 µM
same,TGI,[38],> 100 µM
same,TGI,[39],> 100 µM
same,TGI,[40],> 100 µM
same,TGI,[41],> 100 µM
same,TGI,[42],> 100 µM
same,TGI,[43],> 100 µM
same,TGI,[44],> 100 µM
same,TGI,[45],> 100 µM
same,TGI,[46],> 100 µM
same,TGI,[47],> 100 µM
same,TGI,[48],> 100 µM
same,TGI,[49],> 100 µM
same,TGI,[50],> 100 µM
same,TGI,[51],> 100 µM
same,TGI,[52],> 100 µM
same,TGI,[53],> 100 µM
same,TGI,[54],> 100 µM
same,TGI,[55],> 100 µM
same,TGI,[56],> 100 µM
same,TGI,[57],> 100 µM
COc1nc2c(c(=O)[nH]1)N=C(c1ccc(Cl)cc1)CC(c1ccccc1)N2 (stereo not drawn),TGI,[1],> 100 µM
same,TGI,[2],69.3 µM
same,TGI,[3],57.1 µM
same,TGI,[4],50.8 µM
same,TGI,[5],> 100 µM
same,TGI,[6],> 100 µM
same,TGI,[7],> 100 µM
same,TGI,[8],67.1 µM
same,TGI,[9],60.9 µM
same,TGI,[11],65.8 µM
same,TGI,[12],> 100 µM
same,TGI,[13],> 100 µM
same,TGI,[14],> 100 µM
same,TGI,[17],44.9 µM
same,TGI,[18],> 100 µM
same,TGI,[19],61.4 µM
same,TGI,[20],66.2 µM
same,TGI,[21],60.1 µM
same,TGI,[22],> 100 µM
same,TGI,[23],42.1 µM
same,TGI,[24],43 µM
same,TGI,[25],> 100 µM
same,TGI,[26],76.8 µM
same,TGI,[27],47.1 µM
same,TGI,[28],> 100 µM
same,TGI,[29],46.6 µM
same,TGI,[30],> 100 µM
same,TGI,[32],> 100 µM
same,TGI,[33],36.8 µM
same,TGI,[34],52.3 µM
same,TGI,[35],> 100 µM
same,TGI,[36],70.7 µM
same,TGI,[37],> 100 µM
same,TGI,[38],48.6 µM
same,TGI,[58],64.6 µM
same,TGI,[39],> 100 µM
same,TGI,[40],> 100 µM
same,TGI,[41],> 100 µM
same,TGI,[43],> 100 µM
same,TGI,[59],> 100 µM
same,TGI,[45],54.9 µM
same,TGI,[47],> 100 µM
same,TGI,[48],57.4 µM
same,TGI,[49],> 100 µM
same,TGI,[50],54.1 µM
same,TGI,[51],67.9 µM
same,TGI,[52],> 100 µM
same,TGI,[53],> 100 µM
same,TGI,[54],> 100 µM
same,TGI,[55],75.4 µM
same,TGI,[56],> 100 µM
same,TGI,[57],> 100 µM
COc1cc(/C=C/c2ccnc3ccccc23)cc(OC)c1OC,GI50,[1],1.6 µM
same,TGI,[1],8.91 µM and 5.87 µM
same,GI50,[2],2.94 µM
same,TGI,[2],15.8 µM and 15 µM
same,GI50,[3],5.25 µM
same,TGI,[3],29.3 µM and > 100 µM
same,GI50,[4],2.8 µM
same,TGI,[4],9.42 µM and 46 µM
same,GI50,[5],3.06 µM
same,TGI,[5],30.3 µM and 20.7 µM
same,GI50,[6],4.42 µM
same,TGI,[6],28.2 µM and 61.6 µM
same,GI50,[7],5.87 µM
same,TGI,[7],37.7 µM and > 100 µM
same,GI50,[8],0.746 µM
same,TGI,[8],> 100 µM
same,GI50,[9],4.17 µM
same,TGI,[9],> 100 µM
same,GI50,[10],2.56 µM
same,TGI,[10],1.58 µM and 7.97 µM
same,GI50,[11],6.55 µM
same,GI50,[12],3.26 µM
same,TGI,[12],7.36 µM and 15.1 µM
same,TGI,[13],91.6 µM and > 100 µM
same,GI50,[14],3.53 µM
same,TGI,[14],> 100 µM and 38.4 µM
same,GI50,[15],3.88 µM
same,TGI,[15],42.5 µM and > 100 µM
same,TGI,[16],19.8 µM and 47.6 µM
same,GI50,[17],3.64 µM
same,TGI,[18],95 µM and > 100 µM
same,GI50,[19],1.97 µM
same,TGI,[19],15.3 µM and 8.02 µM
same,GI50,[20],1.89 µM
same,TGI,[20],20.8 µM and 26.8 µM
same,TGI,[21],> 100 µM
same,GI50,[22],4.94 µM
same,TGI,[22],35 µM and > 100 µM
same,TGI,[23],11.5 µM and 23.3 µM
same,GI50,[24],2.43 µM
same,TGI,[24],91 µM and 13.8 µM
same,GI50,[25],1.67 µM
same,TGI,[25],14.6 µM and 4.71 µM
same,TGI,[26],1.74 µM
same,GI50,[27],4.4 µM
same,TGI,[27],31 µM and > 100 µM
same,TGI,[28],> 100 µM
same,TGI,[29],30.7 µM and > 100 µM
same,TGI,[30],50.9 µM
same,TGI,[31],30.6 µM and > 100 µM
same,GI50,[32],2.35 µM
same,TGI,[32],25.2 µM and > 100 µM
same,TGI,[33],10.5 µM and 11.5 µM
same,GI50,[34],4.89 µM
same,TGI,[34],92 µM and > 100 µM
same,GI50,[35],3.81 µM
same,TGI,[35],94.1 µM and > 100 µM
same,GI50,[36],3.12 µM
same,TGI,[36],> 100 µM and 53 µM
same,GI50,[37],1.72 µM
same,TGI,[38],46.8 µM and 7.39 µM
same,GI50,[58],1.92 µM
same,TGI,[58],> 100 µM and 70.1 µM
same,GI50,[39],3.01 µM
same,TGI,[39],44.1 µM and 22.8 µM
same,GI50,[40],2.47 µM
same,TGI,[40],13.4 µM and 26.2 µM
same,GI50,[41],2.88 µM
same,TGI,[41],12.1 µM and 18.5 µM
same,GI50,[42],1.74 µM
same,TGI,[42],20.9 µM and 7.18 µM
same,TGI,[43],6.92 µM and 9.64 µM
same,GI50,[44],6.58 µM
same,TGI,[44],80.4 µM and > 100 µM
same,GI50,[45],1.7 µM
same,TGI,[45],5.4 µM
same,GI50,[46],5.68 µM
same,TGI,[46],46.4 µM and 40.3 µM
same,GI50,[47],1.34 µM
same,TGI,[47],15.9 µM and 11.1 µM
same,GI50,[48],4.41 µM
same,TGI,[48],45.5 µM and > 100 µM
same,GI50,[49],0.355 µM
same,TGI,[49],1.87 µM and 1.85 µM
same,GI50,[50],4.06 µM
same,TGI,[50],37.2 µM and > 100 µM
same,GI50,[51],2.07 µM
same,TGI,[51],9.08 µM
same,GI50,[52],6.27 µM
same,TGI,[52],> 100 µM
same,GI50,[53],0.755 µM
same,GI50,[54],0.906 µM
same,TGI,[54],> 100 µM and 20 µM
same,GI50,[55],1.25 µM
same,TGI,[55],9.32 µM and 4.98 µM
same,GI50,[56],3.39 µM
same,TGI,[56],31.1 µM and > 100 µM
same,GI50,[57],6.71 µM
same,TGI,[57],42.1 µM and > 100 µM
